Laboratory results taken from patent US10976312B2, “Compositions and methods for capture of cellular targets of bioactive agents” (Promega Corporation, priority 2012, dated 2021).

Assays:
Assay type in all cases: cell-based
NANOLUC-DHFR fusion [1] = target: T1, NANOLUC-DHFR fusion (Homo sapiens, UniProt P00374); experiment: Binding affinity to DHFR in live cells using BRET; settings: HEK293 live cells, 1 μM PBI-4890 tracer, 2 h
T1 construct: expressed in transfected cells; host or cells: HEK293
T1 sequence (P00374 1-187): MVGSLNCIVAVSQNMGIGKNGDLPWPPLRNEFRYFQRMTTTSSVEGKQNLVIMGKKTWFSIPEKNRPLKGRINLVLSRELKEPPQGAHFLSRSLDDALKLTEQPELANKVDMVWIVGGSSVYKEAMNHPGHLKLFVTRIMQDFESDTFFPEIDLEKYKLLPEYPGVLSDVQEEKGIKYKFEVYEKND
Description: Binding affinity to DHFR in live cells was tested using BRET. HEK293 cells in wells of a 96-well plate were transfected using PEI with plasmid DNA encoding a NANOLUC-DHFR fusion. The DNA was diluted 1:50 with a promoterless carrier DNA plasmid (PSI) to a final concentration of 80 ng total DNA per well. Twenty-four hours post-transfection, cells were serum starved for additional 24 hours and then treated with serially diluted PBI-4848 or PBI-5015 in the presence of 1 μM PBI-4890 (TOM-methotrexate derivative). After two hours of equilibrium binding, furimazine (a coelenterazine derivative; Promega Corp.) was added to a final concentration of 20 μM, and BRET measured on a Varioskan luminometer.

NANOLUC-DHFR fusion [2] = target: T1, NANOLUC-DHFR fusion; experiment: Pull-down of NANOLUC:DHFR from live HEK293 cells onto HALOTAG protein beads; settings: 10 μM conjugate, release with 150 μM methotrexate
Description: The DNA was diluted 1:50 with a promoterless carrier DNA plasmid (PSI) to a final concentration of 80 ng total DNA per well. Twenty-four hours post-transfection, cells were serum starved for additional 24 h and then incubated with 10 μM PBI-4848 or PBI-5015 while control cells were not treated with the conjugated drug. Following equilibration binding of 2 h, the media was removed, and the cells quickly washed with PBS and lysed in detergent-based lysis buffer for 10 min. Cell lysates were then transferred to wells of a 96-well plate containing 0.5 μl settled paramagnetic HALOTAG protein beads and incubated with shaking for 45 min. Following binding, the unbound fraction was removed, the HALOTAG protein paramagnetic beads washed, 150 μM unconjugated methotrexate added, and the captured NANOLUC:DHFR specifically released from the beads by competition with the unconjugated methotrexate for 60 min. The released NANOLUC:DHFR (+PBI5015 or +PBI 4848) and control samples were detected by NANOGLO luciferase detection reagent.

DHFR = target: T2, DHFR (Homo sapiens, UniProt P00374); experiment: Endogenous target pull-down from HEK293 cells, western blot and mass spec (Example 7); settings: 10 uM conjugate, listed as Methotrexate-CA
T2 construct: isolate, e.g., pull-down, endogenous targets from cells; endogenous in cells; host or cells: HEK293
T2 sequence (P00374 1-187): T1 sequence (P00374 1-187)
Description: HEK293 cells were plated into wells of a 6-well plate (2.5×10^5 cells/well). 48 hours post plating, a final concentration of 10 uM of Methotrexate chloroalkane (PBI-5015) was added to 2 wells while control cells were not treated with the drug conjugate. Following equilibrium binding for 2 h, the media was removed, and the cells quickly washed with PBS and lysed in detergent-based lysis buffer for 10 min. Cell lysates were then transferred to an Eppendorf® tube containing 12.5 ul of settled paramagnetic HALOTAG protein beads and incubated with shaking for 15 min. Following binding, the unbound fraction was removed, the HALOTAG paramagnetic beads washed 3×, and the captured targets specifically released from the beads by competition with 150 μM unconjugated methotrexate for 60 mins. The released targets were subjected to mass spec analysis as well as western blot analysis using an anti-DHFR antibody (Sigma).

[3] = tested on: intracellular HDAC activity; experiment: Intracellular HDAC activity, non-lytic HDAC-Glo I/II assay, HEK293 and K562 cells (Example 10); settings: 2 hours treatment, relative to SAHA
Description: HEK293 cells were plated in a 96-well plate at 1×10^5 cell/ml in DMEM+10% serum, and 24 hours later, the media was replaced with serum free DMEM media. K562 cells were plated in serum free RPMI 1640 media into wells of a 96-well plate at 2×10^5 cells/ml. Cells were treated with serial dilutions of SAHA or PBI-5040 (SAHA-chloroalkane) for 2 hours and then tested for intracellular HDAC activity using the non-lytic HDAC-Glo™ I/II assay (Promega Corporation) according to manufacturer's instructions. […] The ˜2-fold reduction in SAHA potency due to the chloroalkane modification indicates minimal impact of the chloroalkane on cellular permeability or potency.

[4] = tested on: intracellular HDAC activity; experiment: Intracellular HDAC activity, non-lytic HDAC-Glo I/II assay, K562 cells (Example 12); settings: 2 hours treatment
Description: K562 cells were plated in serum free RPMI 1640 media into wells of a 96-well plate at 2×10^5 cells/ml. Cells were then treated with serial dilution of SAHA, PBI-5040 (SAHA-chloroalkane) or PBI 5475 (SAHA-biotin) for 2 hours and then tested for intracellular HDAC activity using the non-lytic HDAC-Glo™ I/II assay (Promega Corporation) according to manufacturer's instructions.

[5] = tested on: HDAC1, HDAC2, HDAC3, HDAC6, HDAC8; experiment: Endogenous target pull-down from HEK293 cells, western blot and mass spec (Example 11); settings: 20 uM conjugate
Description: HEK293 cells were plated in 100 mm dishes at 2×10^5 cells/ml. Forty-eight hours post plating, a final concentration of 20 uM SAHA-chloroalkane (PBI-5040) was added to 3 of the dishes (1×10^7 cells/dish), while 3 other dishes were not treated with the conjugated drug (control). Following equilibrium binding for 2 hours, the media was removed, the cells quickly washed with PBS, lysed in a detergent-based lysis buffer for 10 minutes and centrifuged at 3000×g for 1 minute. The cleared lysates were than added to 75 ul of settled paramagnetic HALOTAG beads and incubated with shaking for 15 minutes. Following binding, the unbound fraction was removed, the HALOTAG paramagnetic beads were washed 3× (wash buffer—50 mM HEPES pH7.5, 150 mM NaCl and 0.01% IGEPAL), and the captured targets specifically released from the beads by competition with 400 μM unconjugated SAHA for 60 minutes. The released targets were subjected to mass spec analysis (FIG. 11B) as well as western blot analysis (FIG. 1-A) with anti HDAC1 antibody (ABCAM); anti HDAC2 antibody (ABCAM); anti HDAC6 antibody (Millipore); anti HDAC3 antibody (Thermo Fisher) and anti HDAC8 antibody (Rockland/Promega).

[6] = tested on: HDAC1, HDAC2, HDAC3, HDAC6, HDAC8; experiment: Endogenous target pull-down from K562 cells, western blot (Example 13); settings: 20 uM conjugate
Description: K562 cells were plated in 150 mm dishes at 5×10^7 cells/dish. A final concentration of 20 uM SAHA chloroalkane (PBI-5040) or PBI-5475 (SAHA-biotin) was added to 2 dishes of cells while 2 other dishes of cells were not treated with the conjugated drug (control). Following equilibrium binding of 2 hours, the media was removed, the cells quickly washed with PBS and lysed in detergent-based lysis buffer for 10 minutes and centrifuged at 3000×g for 1 minute. The cleared lysates treated with PBI-5040, as well as the cleared lysates of the control cells, were added to 75 ul of settled paramagnetic HALTOG beads. The cleared lysates of the cells treated with PBI-5475, as well as the cleared lysate of the control cells, were added to 75 ul of settled paramagnetic Streptavidin beads (GE). Following 15 minutes of binding, the unbound fraction was removed, beads were washed 3×, and the captured targets specifically released from the beads by competition with 400 μM unconjugated SAHA for 60 minutes. The released targets were subjected to western blot analysis (FIG. 13) with anti HDAC1 antibody (ABCAM); anti HDAC2 antibody (ABCAM); anti HDAC6 antibody (Millipore); anti HDAC3 antibody (Thermo Fisher) and anti HDAC8 antibody (Rockland/Promega).

affinity to DHFR (dose-response BRET curves) (NANOLUC-DHFR fusion [1]) | pull-down of endogenous DHFR (DHFR) | Compound | pull-down of Nluc:DHFR fusion (NANOLUC-DHFR fusion [2]) | reduction in SAHA potency due to the chloroalkane modification [3] [fold] | reduction in potency relative to SAHA [4] [fold] | pull-down of endogenous SAHA targets (HDACs) [5] | pull-down of endogenous SAHA targets (HDACs) ([5]; listed as SAHA-CA) | pull-down of endogenous SAHA targets (HDACs) ([6]; listed as SAHA-CA) | pull-down of endogenous SAHA targets (HDACs) ([6]; listed as SAHA-chloroalkane)
higher affinity to DHFR |  | CN(Cc1cnc2nc(N)nc(N)c2n1)c1ccc(C(=O)NC(CCC(=O)NCCOCCOCCCCCCCl)C(=O)O)cc1 (stereo not shown) [PBI-4848] |  |  |  |  |  |  | 
lower affinity to DHFR | specific pull down of DHFR | CN(Cc1cnc2nc(N)nc(N)c2n1)c1ccc(C(=O)NC(CCC(=O)NCCCCCNC(=O)OCCOCCOCCOC(=O)NCCOCCOCCCCCCCl)C(=O)O)cc1 (stereo not shown) [PBI-5015] | efficiently pulled down the Nluc:DHFR fusion |  |  |  |  |  | 
 |  | O=C(CCCCCCC(=O)Nc1ccc(CNC(=O)OCCOCCOCCOC(=O)NCCOCCOCCCCCCCl)cc1)NO [PBI-5040] |  | ~2 | ~2 | all known targets of SAHA, including low affinity target (HDAC8) and low abundance target (HDAC3), can be specifically pull down | specific pull down of all known targets | specific pull down of all known targets of SAHA | all known targets of SAHA, including a low affinity target (HDAC8) and a low abundance target (HDAC3), were specifically pulled down
